ChEMBL document CHEMBL1201862, “PubChem BioAssay data set” (2004)
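Interpolation was linear, between the two tested concentrations surrounding the appropriate level; five concentrations were tested over 48 hours in 96-well plates. Here, GI50 denotes the concentration required for 50% inhibition of growth.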 The source made the active and inactive calls. Cut-off read from the data, not from the text of the source: active = GI50 up to about 1.1 µM and inactive = higher.

Experiments:
Assay in all cases: inhibition of tumour cell growth, NCI panel, 48 h
786-0 = tested on: 786-0
EKVX = tested on: EKVX
HCT-116 = tested on: HCT-116
HOP-62 = tested on: HOP-62
HT-29 = tested on: HT-29
K562 = tested on: K562
KM12 = tested on: KM12
LOX IMVI = tested on: LOX IMVI
MCF7 = tested on: MCF7
MDA-N = tested on: MDA-N
OVCAR-3 = tested on: OVCAR-3
OVCAR-5 = tested on: OVCAR-5
PC-3 = tested on: PC-3
SF-539 = tested on: SF-539
SK-MEL-28 = tested on: SK-MEL-28
SW-620 = tested on: SW-620
T47D = tested on: T47D
TK-10 = tested on: TK-10
UO-31 = tested on: UO-31
HOP-92 = tested on: HOP-92

Measured: GI50

O=C(O)CC(Cc1ccccc1)C(=O)O (centres undefined)
inactive: 786-0 76.2 µM | EKVX > 100 µM | HCT-116 > 100 µM | HOP-62 > 100 µM | HT-29 > 100 µM | K562 > 100 µM | KM12 > 100 µM | LOX IMVI > 100 µM | MCF7 > 100 µM | MDA-N 56.5 µM | OVCAR-3 > 100 µM | OVCAR-5 > 100 µM | PC-3 > 100 µM | SF-539 > 100 µM | SK-MEL-28 > 100 µM | SW-620 > 100 µM | T47D > 100 µM | TK-10 > 100 µM | UO-31 > 100 µM

COC(=O)c1onc(C2OC(C)(C)OC2C(O)COC(c2ccccc2)(c2ccccc2)c2ccccc2)c1C(=O)OC (centres undefined)
inactive: 786-0 > 100 µM | EKVX 41.9 µM | HCT-116 > 100 µM | HOP-62 > 100 µM | HOP-92 > 100 µM | HT-29 > 100 µM | K562 72.8 µM | KM12 > 100 µM | MCF7 > 100 µM | MDA-N > 100 µM | OVCAR-3 87.5 µM | OVCAR-5 > 100 µM | PC-3 44.7 µM | SF-539 > 100 µM | SK-MEL-28 > 100 µM | SW-620 > 100 µM | T47D > 100 µM | TK-10 > 100 µM | UO-31 > 100 µM

CCOP(=O)(/C=C\n1cnc2c(=O)n(C(C)=O)c(N)nc21)OCC
inactive: 786-0 > 100 µM | EKVX > 100 µM | HCT-116 > 100 µM | HOP-62 > 100 µM | HT-29 > 100 µM | K562 > 100 µM | KM12 > 100 µM | LOX IMVI > 100 µM | MCF7 > 100 µM | MDA-N > 100 µM | OVCAR-3 > 100 µM | OVCAR-5 > 100 µM | PC-3 22.5 µM | SF-539 > 100 µM | SK-MEL-28 > 100 µM | SW-620 > 100 µM | T47D > 100 µM | TK-10 > 100 µM

CCCCC[C@H](O)[C@H](C)C=C1SCCCS1
inactive: 786-0 > 100 µM | EKVX > 100 µM | HCT-116 > 100 µM | HOP-62 > 100 µM | HOP-92 > 100 µM | HT-29 > 100 µM | K562 > 100 µM | KM12 > 100 µM | LOX IMVI > 100 µM | MCF7 > 100 µM | MDA-N > 100 µM | OVCAR-3 > 100 µM | OVCAR-5 > 100 µM | PC-3 > 100 µM | SK-MEL-28 > 100 µM | SW-620 > 100 µM | T47D 43.2 µM | TK-10 > 100 µM | UO-31 > 100 µM

C#CCOCn1ccc(=O)[nH]c1=O
inactive: 786-0 > 100 µM | EKVX > 100 µM | HCT-116 > 100 µM | HOP-62 > 100 µM | HT-29 > 100 µM | K562 > 100 µM | KM12 > 100 µM | LOX IMVI > 100 µM | MCF7 > 100 µM | MDA-N > 100 µM | OVCAR-5 > 100 µM | PC-3 > 100 µM | SF-539 > 100 µM | SK-MEL-28 > 100 µM | SW-620 > 100 µM | T47D > 100 µM | TK-10 > 100 µM | UO-31 > 100 µM

CC(=O)N1CCn2c1nc1cc(Cl)ccc12
inactive: 786-0 > 100 µM | EKVX 54.3 µM | HCT-116 44 µM | HOP-62 19.4 µM | HOP-92 24.9 µM | HT-29 > 100 µM | K562 > 100 µM | KM12 > 100 µM | LOX IMVI 39.2 µM | MCF7 > 100 µM | MDA-N > 100 µM | OVCAR-3 95.1 µM | OVCAR-5 > 100 µM | PC-3 47.5 µM | SF-539 26.4 µM | SK-MEL-28 > 100 µM | SW-620 > 100 µM | T47D 21.4 µM | TK-10 63.1 µM

Cc1nn(C)c2nc3ccc(Cl)cc3c(-c3ccccc3)c12
inactive: 786-0 > 100 µM | EKVX > 100 µM | HCT-116 > 100 µM | HOP-62 > 100 µM | HOP-92 > 100 µM | HT-29 > 100 µM | K562 > 100 µM | KM12 > 100 µM | MCF7 > 100 µM | MDA-N > 100 µM | OVCAR-3 > 100 µM | OVCAR-5 95.3 µM | PC-3 > 100 µM | SF-539 > 100 µM | SK-MEL-28 > 100 µM | SW-620 > 100 µM | T47D > 100 µM | UO-31 > 100 µM

CC1=CCCC(C)(O)C2CC(CCC3(C)OC3CC1)C(C)C(=O)O2 (centres undefined)
inactive: 786-0 > 100 µM | EKVX > 100 µM | HCT-116 > 100 µM | HOP-92 > 10 µM | HT-29 > 100 µM | K562 > 100 µM | KM12 > 100 µM | LOX IMVI > 100 µM | MCF7 > 100 µM | MDA-N > 100 µM | OVCAR-3 > 100 µM | OVCAR-5 > 100 µM | PC-3 > 100 µM | SF-539 > 100 µM | SK-MEL-28 > 100 µM | SW-620 > 100 µM | T47D > 100 µM | TK-10 > 100 µM | UO-31 > 100 µM

O=C1CSC(=O)/C1=C\NNc1nc2ccccc2o1
inactive: 786-0 40.2 µM | EKVX 34.5 µM | HCT-116 17 µM | HOP-62 51.8 µM | HOP-92 23.3 µM | HT-29 24.7 µM | KM12 67.9 µM | LOX IMVI 22.4 µM | MCF7 59.3 µM | MDA-N 52.1 µM | OVCAR-3 17.4 µM | OVCAR-5 60.7 µM | PC-3 21.8 µM | SF-539 11.4 µM | SK-MEL-28 67 µM | SW-620 29.8 µM | T47D 6.34 µM | TK-10 53.3 µM

COc1ccc(Nc2nn3c(=O)c4c(C)c(C)sc4nc3s2)cc1
inactive: 786-0 23.2 µM | HCT-116 26.7 µM | HOP-62 29.1 µM | HOP-92 27.3 µM | HT-29 42.3 µM | K562 > 100 µM | KM12 44.8 µM | LOX IMVI 56.9 µM | MCF7 34.8 µM | MDA-N 45.6 µM | OVCAR-3 29.1 µM | OVCAR-5 52.4 µM | PC-3 36.1 µM | SF-539 33 µM | SK-MEL-28 61.1 µM | SW-620 55.7 µM | T47D 25.7 µM | TK-10 26.8 µM | UO-31 18 µM

O=[N+]([O-])/C(Cl)=C/C(=C1/Nc2ccccc2O1)[N+](=O)[O-]
inactive: 786-0 31.8 µM | EKVX 18.8 µM | HCT-116 13.9 µM | HOP-62 33.7 µM | HOP-92 24.7 µM | HT-29 32.8 µM | K562 32.7 µM | KM12 19.2 µM | LOX IMVI 8.13 µM | MCF7 29.6 µM | MDA-N 18.5 µM | OVCAR-3 19.3 µM | PC-3 14.1 µM | SF-539 15.5 µM | SK-MEL-28 19.5 µM | SW-620 32.7 µM | T47D 32.6 µM | TK-10 44.1 µM | UO-31 15.7 µM

CC1(C)Cc2c(sc3[nH]c(=S)[nH]c(=S)c23)CS1
inactive: 786-0 85.9 µM | HCT-116 47 µM | HOP-62 88.3 µM | HOP-92 12.4 µM | HT-29 27.1 µM | K562 29.2 µM | KM12 45.8 µM | LOX IMVI 32.8 µM | MCF7 32.8 µM | MDA-N 33.9 µM | OVCAR-3 26.2 µM | PC-3 25.4 µM | SF-539 37.9 µM | SK-MEL-28 22.4 µM | SW-620 53.1 µM | T47D 20.3 µM | TK-10 95.5 µM | UO-31 31.8 µM

COc1ccc(-c2nnc3n(Cc4ccccc4)c4ccccc4n3c2=O)cc1
inactive: 786-0 10.9 µM | EKVX 29.8 µM | HCT-116 38.7 µM | HOP-62 1.92 µM | HOP-92 19.4 µM | HT-29 > 100 µM | KM12 > 100 µM | LOX IMVI 49.9 µM | MCF7 29.4 µM | MDA-N > 100 µM | OVCAR-5 42.8 µM | PC-3 5.92 µM | SF-539 13.2 µM | SK-MEL-28 36.4 µM | SW-620 > 100 µM | T47D 45.6 µM | TK-10 21.9 µM | UO-31 39.9 µM

Cc1nnc2sc(NN)nn12
inactive: 786-0 > 100 µM | EKVX > 100 µM | HCT-116 > 100 µM | HOP-62 > 100 µM | HT-29 > 100 µM | K562 > 100 µM | KM12 > 100 µM | LOX IMVI > 100 µM | MCF7 > 100 µM | MDA-N 43.5 µM | OVCAR-3 > 100 µM | OVCAR-5 > 100 µM | PC-3 > 100 µM | SF-539 > 100 µM | SK-MEL-28 > 100 µM | SW-620 > 100 µM | T47D > 100 µM | TK-10 > 100 µM | UO-31 > 100 µM

C=C(C)[C@@H]1CC[C@@]2(C)[C@H]1[C@H]1CCC3[C@@]4(C)CC[C@H](O)C(C)(C)[C@@H]4CC[C@@]3(C)[C@]1(C)C[C@@H]2O (some centres undefined) [CALENDULADIOL]
inactive: 786-0 38 µM | EKVX 33.7 µM | HCT-116 43.5 µM | HOP-62 > 100 µM | HOP-92 92.3 µM | HT-29 24.4 µM | K562 6.61 µM | KM12 39.4 µM | LOX IMVI 46.2 µM | MCF7 22.8 µM | MDA-N 43 µM | OVCAR-3 52.1 µM | OVCAR-5 63.2 µM | PC-3 39.4 µM | SF-539 67 µM | SK-MEL-28 > 100 µM | SW-620 41.9 µM | T47D > 100 µM | TK-10 > 100 µM
